In patent US20100317583A1, “TREATMENT OF MELANOMA WITH ALPHA THYMOSIN PEPTIDES IN COMBINATION WITH AN ANTINEOPLASTIC HEAT SHOCK APOPTOSIS ACTIVATOR (HSAA)” (SciClone Pharmaceuticals, Inc., priority 2007, published 2010):
Several values for one entry are separate records, joined by “and”; a condition that tells them apart may be missing. Equal values may be shown once. No end group written: not given here.

Test system: murine B16 melanoma cells
Experiment: Anti-tumor efficacy (tumor size, tumor volume, tumor weight) in C57BL/6 mice bearing subcutaneous B16 melanoma
Type: in vivo
Settings: for Tumor weights / PI (TW), percent inhibition of tumor weight vs vehicle: Day 17
Experimental: In this study, the anti-tumor effect of the combined treatment of thymosin alpha-1 (TA-1), Paclitaxel (Pac) and Elesclomol (Ele) was evaluated in C57BL/6 mice bearing B16 melanoma cells. The toxic effects of the dosing regimens were also monitored. A total of 60 mice were implanted subcutaneously with murine B16 cells, followed by treatment with TA-1 or Pac/Ele alone or in combination for 14 consecutive days. TA-1 was given daily via s.c., while Pac and Ele were co-i.v. administered on Day 1, 7 and 13. In total, 6 groups were used: Group 1: vehicle; Group 2: TA-1 6 mg/kg; Group 3: Pac 10 mg/kg+Ele 10 mg/kg; Group 4: Pac 30 mg/kg+Ele 30 mg/kg; Group 5: TA-1 6 mg/kg+Pac 10 mg/kg+Ele 10 mg/kg; and Group 6: TA-1 6 mg/kg+Pac 30 mg/kg+Ele 30 mg/kg. Tumor volume and body weight were measured every three days, and tumor weights were measured on Day 17 at the end of the study.
Murine B16 melanoma cells were thawed from the stock of Cell Culture Center, Institute of Basic Medical Sciences, Peking Union Medical College and Chinese Academy of Medical Sciences (PUMC & CAMS, Beijing, P. R. China). The tumor cells were adapted in C57BL/6 mice before use in the experiment (Refer to Section 4.3.1 for details on cell adaptation).
Using aseptic tissue culture procedures, one vial of B16 melanoma cells was removed from the liquid nitrogen stock, and placed into a 37° C. water bath. Gentle swirling was conducted until the content of the vial was thawed. Once thawed, the cells were immediately centrifuged with a TD5A-WS centrifuge at 1000 rpm, 20-25° C., 5 min. After centrifugation, the cells were suspended in […] normal saline (NS) and subcutaneously injected into 10 mice (0.1 mL/mouse, about 1×10^6 cells). After 7-10 days, when the tumor diameter was approximately 1 cm, the animals were euthanized with CO2 overdose and the tumors excised. The procedure was repeated with 20 mice to generate a sufficient number of B16 melanoma cells with adequate transplantability.
On the day of tumor implantation, approximately 1×10^6 cells in 0.1 mL were subcutaneously injected on the right axillary area of each mouse. The day of tumor implantation was defined as Day 0.
On Day 1, the animals were randomly assigned into different weight-matched groups, and dosing was started using the regimen according to Table 2. Briefly, TA-1 was administered once daily via subcutaneous (s.c.) injection for 14 consecutive days at a site different from that of tumor cell implantation, while Pac and Ele was administered on Days 1, 7, and 13 via an intravenous (i.v.) injection.
From Day 1 to Day 15, mortality and moribundity were checked twice daily, the body weights were recorded once every 3 days, and tumors were measured using a caliper once every 3 days. At the end of the study (Day 17), the animals were euthanized by CO2 asphyxiation, and the tumors were excised and weighed.
Based on the tumor size, the tumor volume (TV) was calculated with the formula: [TV=(Length×Width×Width)/2]. And the percent inhibition (PI) of TV (PITV) was calculated according to the equation below:
PITV(%)=(TV vehicle−TVdrug treated)/TV vehicle×100
The anti-tumor effect of the test article was further evaluated with tumor weight (TW) measured on day of necropsy (Day 17). The PI of TW was calculated using the equation below:
PITW(%)=100×(TW vehicle−TW drug treated)/TW vehicle
The calculations of PITV and PITW were performed using an Excel spreadsheet and reviewed by the Study Director and Study Monitor.
Inter-group comparison was performed in terms of tumor volume, tumor weight and body weight, using a student's t test. P values of less than 0.05 were considered to be statistically significant.

[1] = Day 3, individual animals F1-F5, M1-M5, low-dose arms: TA-1 6 mg/kg, Pac 10 + Ele 10 mg/kg
[2] = Day 3, low-dose arms: TA-1 6 mg/kg s.c. daily, Pac 10 + Ele 10 mg/kg co-i.v. Days 1, 7, 13
[3] = Day 6, individual animals F1-F5, M1-M5, low-dose arms: TA-1 6 mg/kg, Pac 10 + Ele 10 mg/kg
[4] = Day 6, low-dose arms: TA-1 6 mg/kg s.c. daily, Pac 10 + Ele 10 mg/kg co-i.v. Days 1, 7, 13
[5] = Day 9, individual animals F1-F5, M1-M5, low-dose arms: TA-1 6 mg/kg, Pac 10 + Ele 10 mg/kg
[6] = Day 9, low-dose arms: TA-1 6 mg/kg s.c. daily, Pac 10 + Ele 10 mg/kg co-i.v. Days 1, 7, 13
[7] = Day 12, low-dose arms: TA-1 6 mg/kg s.c. daily, Pac 10 + Ele 10 mg/kg co-i.v. Days 1, 7, 13
[8] = Day 15, low-dose arms: TA-1 6 mg/kg s.c. daily, Pac 10 + Ele 10 mg/kg co-i.v. Days 1, 7, 13

Substance: thymosin alpha 1 (SDAAVDTSSEITTKDLKEKKEVVEEAEN; ends and bridges not checked; UniProt P06454 2-29, looked up) [TA-1, 28 amino acid peptide with a molecular weight of 3108; immunomodulator]
- Tumor measurements, L (length) [1]: 0.1 cm (2×) and 0.2 cm (2×)
- Tumor measurements, W (width) [1]: 0.1 cm (2×) and 0.2 cm (2×)
- Tumor volumes (Day 3, individual animals F1-F5, M1-M5, low-dose arms: TA-1 6 mg/kg, Pac 10 + Ele 10 mg/kg, female mice): 0 cm^3 (4×) and 0.0005 cm^3
- Tumor volumes (Day 3, individual animals F1-F5, M1-M5, low-dose arms: TA-1 6 mg/kg, Pac 10 + Ele 10 mg/kg, male mice): 0 cm^3 (2×) and 0.004 cm^3 (2×) and 0.0005 cm^3
- PI (TV), percent inhibition of tumor volume vs vehicle [2]: −50.00%
- Tumor Volume (Mean ± SD) [2]: 0.0009 ± 0.0016 cm^3
- Tumor measurements, L (length) [3]: 0.3 cm and 0.2 cm (2×) and 0.1 cm
- Tumor measurements, W (width) [3]: 0.3 cm and 0.2 cm (2×) and 0.1 cm
- Tumor volumes (Day 6, individual animals F1-F5, M1-M5, low-dose arms: TA-1 6 mg/kg, Pac 10 + Ele 10 mg/kg, female mice): 0 cm^3 (4×) and 0.0135 cm^3
- Tumor volumes (Day 6, individual animals F1-F5, M1-M5, low-dose arms: TA-1 6 mg/kg, Pac 10 + Ele 10 mg/kg, male mice): 0 cm^3 (2×) and 0.004 cm^3 (2×) and 0.0005 cm^3
- PI (TV), percent inhibition of tumor volume vs vehicle [4]: 58.49%
- Tumor Volume (Mean ± SD) [4]: 0.0022 ± 0.0043 cm^3
- Tumor volumes (Day 9, animal F1): 0.0005 cm^3
- Tumor volumes (Day 9, animal F2): 0 cm^3
- Tumor volumes (Day 9, animal F3): 0 cm^3
- Tumor volumes (Day 9, animal F4): 0 cm^3
- Tumor volumes (Day 9, animal F5): 0.0135 cm^3
- Tumor volumes (Day 9, animal M1): 0.004 cm^3
- Tumor volumes (Day 9, animal M2): 0.004 cm^3
- Tumor volumes (Day 9, animal M3): 0.004 cm^3
- Tumor volumes (Day 9, animal M4): 0 cm^3
- Tumor volumes (Day 9, animal M5): 0 cm^3
- Tumor measurements, L (length) [5]: 0.3 cm and 0.2 cm (3×) and 0.1 cm
- Tumor measurements, W (width) [5]: 0.3 cm and 0.2 cm (3×) and 0.1 cm
- PI (TV), percent inhibition of tumor volume vs vehicle [6]: 88.26%
- Tumor Volume (Mean ± SD) [6]: 0.0026 ± 0.0043 cm^3
- Tumor measurements L (Day 12, animal F1): 0.1 cm
- Tumor measurements W (Day 12, animal F1): 0.1 cm
- Tumor volumes (Day 12, animal F1): 0.0005 cm^3
- Tumor measurements L (Day 12, animal F2): 0.2 cm
- Tumor measurements W (Day 12, animal F2): 0.2 cm
- Tumor volumes (Day 12, animal F2): 0.004 cm^3
- Tumor measurements L (Day 12, animal F3): 0.2 cm
- Tumor measurements W (Day 12, animal F3): 0.2 cm
- Tumor volumes (Day 12, animal F3): 0.004 cm^3
- Tumor measurements L (Day 12, animal F4): 0.1 cm
- Tumor measurements W (Day 12, animal F4): 0.1 cm
- Tumor volumes (Day 12, animal F4): 0.0005 cm^3
- Tumor measurements L (Day 12, animal F5): 0.3 cm
- Tumor measurements W (Day 12, animal F5): 0.3 cm
- Tumor volumes (Day 12, animal F5): 0.0135 cm^3
- Tumor measurements L (Day 12, animal M1): 0.2 cm
- Tumor measurements W (Day 12, animal M1): 0.2 cm
- Tumor volumes (Day 12, animal M1): 0.004 cm^3
- Tumor measurements L (Day 12, animal M2): 0.2 cm
- Tumor measurements W (Day 12, animal M2): 0.2 cm
- Tumor volumes (Day 12, animal M2): 0.004 cm^3
- Tumor measurements L (Day 12, animal M3): 0.2 cm
- Tumor measurements W (Day 12, animal M3): 0.2 cm
- Tumor volumes (Day 12, animal M3): 0.004 cm^3
- Tumor measurements L (Day 12, animal M4): 0.2 cm
- Tumor measurements W (Day 12, animal M4): 0.2 cm
- Tumor volumes (Day 12, animal M4): 0.004 cm^3
- Tumor measurements L (Day 12, animal M5): 0.1 cm
- Tumor measurements W (Day 12, animal M5): 0.1 cm
- Tumor volumes (Day 12, animal M5): 0.0005 cm^3
- PI (TV), percent inhibition of tumor volume vs vehicle [7]: 96.28%
- Tumor Volume (Mean ± SD) [7]: 0.0039 ± 0.0038 cm^3
- Tumor measurements L (Day 15, animal F1): 0.3 cm
- Tumor measurements W (Day 15, animal F1): 0.3 cm
- Tumor volumes (Day 15, animal F1): 0.0135 cm^3
- Tumor measurements L (Day 15, animal F2): 0.3 cm
- Tumor measurements W (Day 15, animal F2): 0.3 cm
- Tumor volumes (Day 15, animal F2): 0.0135 cm^3
- Tumor measurements L (Day 15, animal F3): 0.5 cm
- Tumor measurements W (Day 15, animal F3): 0.5 cm
- Tumor volumes (Day 15, animal F3): 0.0625 cm^3
- Tumor measurements L (Day 15, animal F4): 0.3 cm
- Tumor measurements W (Day 15, animal F4): 0.3 cm
- Tumor volumes (Day 15, animal F4): 0.0135 cm^3
- Tumor measurements L (Day 15, animal F5): 0.6 cm
- Tumor measurements W (Day 15, animal F5): 0.6 cm
- Tumor volumes (Day 15, animal F5): 0.108 cm^3
- Tumor measurements L (Day 15, animal M1): 0.5 cm
- Tumor measurements W (Day 15, animal M1): 0.5 cm
- Tumor volumes (Day 15, animal M1): 0.0625 cm^3
- Tumor measurements L (Day 15, animal M2): 0.4 cm
- Tumor measurements W (Day 15, animal M2): 0.4 cm
- Tumor volumes (Day 15, animal M2): 0.032 cm^3
- Tumor measurements L (Day 15, animal M3): 0.6 cm
- Tumor measurements W (Day 15, animal M3): 0.6 cm
- Tumor volumes (Day 15, animal M3): 0.108 cm^3
- Tumor measurements L (Day 15, animal M4): 0.5 cm
- Tumor measurements W (Day 15, animal M4): 0.5 cm
- Tumor volumes (Day 15, animal M4): 0.0625 cm^3
- Tumor measurements L (Day 15, animal M5): 0.5 cm
- Tumor measurements W (Day 15, animal M5): 0.5 cm
- Tumor volumes (Day 15, animal M5): 0.0625 cm^3
- PI (TV), percent inhibition of tumor volume vs vehicle [8]: 85.60%
- Tumor Volume (Mean ± SD) [8]: 0.0539 ± 0.0358 cm^3
- Tumor Weight (Mean ± SD) (Day 17 (necropsy), low-dose arms: TA-1 6 mg/kg s.c. daily, Pac 10 + Ele 10 mg/kg co-i.v. Days 1, 7, 13): 0.88 ± 0.34 g
- Tumor weights (animal F1): 0.64 g
- Tumor weights (animal F2): 0.5 g
- Tumor weights (animal F3): 1.2 g
- Tumor weights (animal F4): 0.62 g
- Tumor weights (animal F5): 1.45 g
- Tumor weights (animal M1): 0.69 g
- Tumor weights (animal M2): 0.56 g
- Tumor weights (animal M3): 1.36 g
- Tumor weights (animal M4): 0.92 g
- Tumor weights (animal M5): 0.89 g
- PI (TW), percent inhibition of tumor weight vs vehicle (low-dose arms: TA-1 6 mg/kg s.c. daily, Pac 10 + Ele 10 mg/kg co-i.v. Days 1, 7, 13): 55.67%
- PI (TW), percent inhibition of tumor weight vs vehicle (low-dose arms: TA-1 6 mg/kg s.c. daily, Pac 10 + Ele 10 mg/kg co-i.v. Days 1, 7, 13, listed as Group 2): 55.67%
- mean tumor volume reduced in comparison to that of the vehicle control group (throughout the course of the study, TA-1 6 mg/kg s.c. daily): more than 50%
